This note sets out measurements from ChEMBL document CHEMBL5291721, “A preclinical secondary pharmacology resource illuminates target-adverse drug reaction associations of marketed drugs” (Nat Commun, 2023).

Structures are written as SMILES.

The target in test [1] is T1, Muscarinic acetylcholine receptor M2 (Homo sapiens, UniProt P08172).
T1 sequence (P08172 whole entry): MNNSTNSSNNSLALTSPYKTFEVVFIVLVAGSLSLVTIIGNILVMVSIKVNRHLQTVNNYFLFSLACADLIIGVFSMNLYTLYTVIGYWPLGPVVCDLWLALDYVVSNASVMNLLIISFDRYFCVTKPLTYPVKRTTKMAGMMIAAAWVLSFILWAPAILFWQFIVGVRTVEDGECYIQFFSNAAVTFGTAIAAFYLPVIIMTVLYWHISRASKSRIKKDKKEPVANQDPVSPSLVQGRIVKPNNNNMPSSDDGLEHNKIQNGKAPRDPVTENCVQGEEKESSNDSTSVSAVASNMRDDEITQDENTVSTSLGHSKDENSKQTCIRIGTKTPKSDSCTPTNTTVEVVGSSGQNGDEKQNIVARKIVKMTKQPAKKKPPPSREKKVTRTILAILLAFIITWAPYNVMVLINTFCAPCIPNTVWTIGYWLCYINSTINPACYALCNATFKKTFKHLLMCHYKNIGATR

Another test addresses T2, Estrogen receptor (Homo sapiens, UniProt P03372).
T2 sequence (P03372 whole entry): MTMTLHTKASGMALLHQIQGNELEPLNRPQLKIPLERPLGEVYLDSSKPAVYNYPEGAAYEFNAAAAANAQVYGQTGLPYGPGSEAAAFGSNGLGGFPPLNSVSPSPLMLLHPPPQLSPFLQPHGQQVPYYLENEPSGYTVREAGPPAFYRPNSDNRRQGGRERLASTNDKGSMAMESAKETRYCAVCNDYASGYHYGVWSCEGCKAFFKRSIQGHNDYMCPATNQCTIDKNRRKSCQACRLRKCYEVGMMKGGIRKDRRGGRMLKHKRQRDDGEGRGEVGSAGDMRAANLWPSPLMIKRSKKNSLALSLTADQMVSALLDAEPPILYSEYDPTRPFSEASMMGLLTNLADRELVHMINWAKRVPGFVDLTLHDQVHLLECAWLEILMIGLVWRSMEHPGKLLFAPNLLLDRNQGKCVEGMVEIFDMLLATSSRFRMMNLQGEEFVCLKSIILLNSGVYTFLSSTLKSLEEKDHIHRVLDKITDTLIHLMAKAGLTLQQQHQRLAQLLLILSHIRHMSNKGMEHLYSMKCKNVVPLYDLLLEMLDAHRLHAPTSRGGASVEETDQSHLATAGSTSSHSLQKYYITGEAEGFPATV

Test [2] deals with Sodium-dependent noradrenaline transporter (Homo sapiens, UniProt P23975).
Test [3] deals with T3, Prostaglandin G/H synthase 1 (Homo sapiens, UniProt P23219). In kind it is functional.
In test [4] the target is cGMP-inhibited 3',5'-cyclic phosphodiesterase 3A (Homo sapiens, UniProt Q14432). In kind it is functional.
For test [5], the target named is T4, Alpha-2A adrenergic receptor (Homo sapiens, UniProt P08913).
T4 sequence (P08913 whole entry): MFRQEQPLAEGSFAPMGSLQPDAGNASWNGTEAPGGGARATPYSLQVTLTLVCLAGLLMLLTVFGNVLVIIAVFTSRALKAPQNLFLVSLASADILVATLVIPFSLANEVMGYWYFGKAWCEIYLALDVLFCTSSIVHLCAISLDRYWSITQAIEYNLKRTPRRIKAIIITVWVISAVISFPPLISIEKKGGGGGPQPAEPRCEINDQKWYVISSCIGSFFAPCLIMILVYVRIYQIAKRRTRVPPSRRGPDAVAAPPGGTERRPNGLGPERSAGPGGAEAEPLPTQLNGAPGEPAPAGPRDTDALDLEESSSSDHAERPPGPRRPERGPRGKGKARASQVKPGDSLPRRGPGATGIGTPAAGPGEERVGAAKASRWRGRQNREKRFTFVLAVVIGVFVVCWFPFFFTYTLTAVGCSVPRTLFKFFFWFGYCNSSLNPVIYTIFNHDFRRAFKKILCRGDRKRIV

In test [6] the target is T3, Prostaglandin G/H synthase 1. Type of test: functional. The source holds these as a separate data set.
For another test, the target named is T5, Thromboxane A2 receptor (Homo sapiens, UniProt P21731).
T5 sequence (P21731 whole entry): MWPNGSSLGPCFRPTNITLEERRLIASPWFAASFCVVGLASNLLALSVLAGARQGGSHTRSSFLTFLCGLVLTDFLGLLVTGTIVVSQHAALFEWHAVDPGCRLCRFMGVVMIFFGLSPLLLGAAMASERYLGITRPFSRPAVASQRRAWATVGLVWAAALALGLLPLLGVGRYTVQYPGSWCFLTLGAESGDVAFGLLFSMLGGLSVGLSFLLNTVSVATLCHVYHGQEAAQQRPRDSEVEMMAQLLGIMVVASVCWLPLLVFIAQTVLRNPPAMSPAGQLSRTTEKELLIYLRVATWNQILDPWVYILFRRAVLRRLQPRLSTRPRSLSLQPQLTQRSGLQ
Type of test: functional, cell-based.

Test [7] deals with 3',5'-cyclic-AMP phosphodiesterase 4A (Homo sapiens, UniProt P27815). In kind it is functional.

By AC50 is commonly meant the concentration at which the activity in the assay is half-maximal.
Further: assay procedure not described here.

Sequence of cGMP-inhibited 3',5'-cyclic phosphodiesterase 3A (Q14432 whole entry): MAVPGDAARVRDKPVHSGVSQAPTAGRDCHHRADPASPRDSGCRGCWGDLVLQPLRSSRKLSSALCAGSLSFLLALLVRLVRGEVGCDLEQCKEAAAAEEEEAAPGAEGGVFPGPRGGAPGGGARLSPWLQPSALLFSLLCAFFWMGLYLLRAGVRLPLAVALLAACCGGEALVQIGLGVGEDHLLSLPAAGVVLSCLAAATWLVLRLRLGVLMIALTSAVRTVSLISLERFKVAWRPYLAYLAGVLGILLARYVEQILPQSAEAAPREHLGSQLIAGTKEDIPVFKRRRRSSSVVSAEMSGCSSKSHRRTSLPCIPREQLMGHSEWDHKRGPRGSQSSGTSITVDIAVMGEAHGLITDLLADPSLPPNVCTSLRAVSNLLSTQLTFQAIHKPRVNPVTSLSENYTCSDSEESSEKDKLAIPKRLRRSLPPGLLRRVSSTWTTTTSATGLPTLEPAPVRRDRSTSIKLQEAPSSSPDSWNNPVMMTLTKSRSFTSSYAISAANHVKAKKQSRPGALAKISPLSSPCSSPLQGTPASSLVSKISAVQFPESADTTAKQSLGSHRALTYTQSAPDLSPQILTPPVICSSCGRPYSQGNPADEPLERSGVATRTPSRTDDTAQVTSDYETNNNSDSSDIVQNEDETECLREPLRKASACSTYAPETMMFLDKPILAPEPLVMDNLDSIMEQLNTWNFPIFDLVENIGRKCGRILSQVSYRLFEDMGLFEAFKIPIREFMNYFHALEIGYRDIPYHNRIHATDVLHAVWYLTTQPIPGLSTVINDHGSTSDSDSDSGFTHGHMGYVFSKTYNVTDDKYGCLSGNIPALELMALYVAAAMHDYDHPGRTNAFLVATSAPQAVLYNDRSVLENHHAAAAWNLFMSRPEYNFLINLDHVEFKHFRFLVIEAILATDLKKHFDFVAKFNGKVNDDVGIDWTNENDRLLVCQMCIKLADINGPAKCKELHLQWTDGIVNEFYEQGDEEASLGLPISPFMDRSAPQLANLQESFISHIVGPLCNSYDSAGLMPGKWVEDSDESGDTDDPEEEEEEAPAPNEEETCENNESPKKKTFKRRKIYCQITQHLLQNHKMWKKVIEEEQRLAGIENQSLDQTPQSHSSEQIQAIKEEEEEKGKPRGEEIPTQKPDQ
T3 sequence (P23219 whole entry): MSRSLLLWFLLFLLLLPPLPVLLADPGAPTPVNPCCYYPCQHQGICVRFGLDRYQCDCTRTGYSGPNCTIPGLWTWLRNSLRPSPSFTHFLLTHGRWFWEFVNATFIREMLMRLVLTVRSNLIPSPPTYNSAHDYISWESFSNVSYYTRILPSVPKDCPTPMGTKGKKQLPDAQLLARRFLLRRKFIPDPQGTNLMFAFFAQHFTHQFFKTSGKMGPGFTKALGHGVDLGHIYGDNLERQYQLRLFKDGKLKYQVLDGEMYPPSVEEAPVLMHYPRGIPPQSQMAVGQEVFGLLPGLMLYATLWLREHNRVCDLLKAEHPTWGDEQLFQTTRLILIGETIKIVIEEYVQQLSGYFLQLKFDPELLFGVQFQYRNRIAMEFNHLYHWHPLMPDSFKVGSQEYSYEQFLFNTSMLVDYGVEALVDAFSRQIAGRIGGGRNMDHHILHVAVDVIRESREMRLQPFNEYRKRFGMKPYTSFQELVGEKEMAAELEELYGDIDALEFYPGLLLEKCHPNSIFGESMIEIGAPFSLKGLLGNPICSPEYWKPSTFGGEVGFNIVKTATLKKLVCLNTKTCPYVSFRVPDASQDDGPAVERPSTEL
Sequence of Sodium-dependent noradrenaline transporter (P23975 whole entry): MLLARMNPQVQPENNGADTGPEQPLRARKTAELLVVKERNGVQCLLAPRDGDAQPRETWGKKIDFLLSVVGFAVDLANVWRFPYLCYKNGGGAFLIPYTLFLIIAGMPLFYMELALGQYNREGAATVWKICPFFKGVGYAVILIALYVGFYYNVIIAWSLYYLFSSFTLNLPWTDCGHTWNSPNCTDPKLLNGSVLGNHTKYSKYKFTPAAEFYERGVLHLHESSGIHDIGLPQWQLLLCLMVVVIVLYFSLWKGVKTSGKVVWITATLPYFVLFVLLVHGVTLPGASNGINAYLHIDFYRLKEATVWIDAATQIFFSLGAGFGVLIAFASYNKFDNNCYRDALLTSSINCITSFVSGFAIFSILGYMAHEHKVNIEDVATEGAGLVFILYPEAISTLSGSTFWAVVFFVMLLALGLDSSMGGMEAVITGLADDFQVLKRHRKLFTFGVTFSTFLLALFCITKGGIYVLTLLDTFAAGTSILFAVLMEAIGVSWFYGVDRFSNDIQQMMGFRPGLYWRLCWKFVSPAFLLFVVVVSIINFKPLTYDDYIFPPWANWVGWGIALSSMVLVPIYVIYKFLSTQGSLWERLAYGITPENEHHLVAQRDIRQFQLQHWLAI
Sequence of 3',5'-cyclic-AMP phosphodiesterase 4A (P27815 whole entry): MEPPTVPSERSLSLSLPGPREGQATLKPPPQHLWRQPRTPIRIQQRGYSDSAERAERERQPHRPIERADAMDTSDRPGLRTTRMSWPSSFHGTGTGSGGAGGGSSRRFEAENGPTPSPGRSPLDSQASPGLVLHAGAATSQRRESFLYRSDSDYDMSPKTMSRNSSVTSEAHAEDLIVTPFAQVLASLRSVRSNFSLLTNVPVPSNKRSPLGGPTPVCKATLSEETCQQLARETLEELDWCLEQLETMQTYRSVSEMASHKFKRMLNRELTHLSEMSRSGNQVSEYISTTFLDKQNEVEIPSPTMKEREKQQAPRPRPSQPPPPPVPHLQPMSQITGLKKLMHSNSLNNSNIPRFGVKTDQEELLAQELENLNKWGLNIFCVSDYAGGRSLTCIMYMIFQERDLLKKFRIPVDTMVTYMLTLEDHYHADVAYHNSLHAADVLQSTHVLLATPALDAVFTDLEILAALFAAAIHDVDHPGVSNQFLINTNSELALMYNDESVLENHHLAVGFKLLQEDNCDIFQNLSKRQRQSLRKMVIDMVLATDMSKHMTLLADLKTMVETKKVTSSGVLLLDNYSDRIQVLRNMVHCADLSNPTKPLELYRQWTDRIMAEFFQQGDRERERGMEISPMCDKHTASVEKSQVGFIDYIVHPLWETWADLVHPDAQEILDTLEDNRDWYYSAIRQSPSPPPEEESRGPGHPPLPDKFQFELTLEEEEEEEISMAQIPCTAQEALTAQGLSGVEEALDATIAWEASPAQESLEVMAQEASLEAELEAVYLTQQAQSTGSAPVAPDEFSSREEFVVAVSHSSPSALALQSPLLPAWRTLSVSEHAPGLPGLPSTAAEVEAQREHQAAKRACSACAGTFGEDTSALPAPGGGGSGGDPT

`COc1ccc2c(c1)OC(C)(C)C(c1ccccc1)C2c1ccc(OCCN2CCCC2)cc1` (stereo not given) [ORMELOXIFENE]: the AC50 in test [1] is 9.13 µM; on Estrogen receptor, 1.29 µM; in [2] it was 4.9 µM; in test [3] it was 3.31 µM; in test [4], more than 30 µM; in test [5], 10.6 µM. Further, the values for the AC50 (in [6]; on Thromboxane A2 receptor; in test [7]) were 4.3 µM, 12.2 µM and more than 30 µM, respectively.

Regarding `Cc1nc(-c2ccc(OCC(C)C)c(C#N)c2)sc1C(=O)O` [FEBUXOSTAT], the AC50 (in test [1]; on Estrogen receptor; in [2]; in [3]; in test [4]; in test [5]) was more than 30 µM throughout. Besides, the AC50 in test [6] is more than 30 µM; on Thromboxane A2 receptor, more than 30 µM; in test [7], 29 µM.

Regarding `O=C(Cn1ccnc1[N+](=O)[O-])NCc1ccccc1` [BENZNIDAZOLE], the AC50 (in test [1]; at Estrogen receptor; in test [2]; in test [3]; in test [4]; in test [5]) was more than 30 µM each time. Moreover, the AC50 (in test [6]; on Thromboxane A2 receptor; in test [7]) was more than 30 µM throughout.

For `COc1ccc(-c2cc(=O)c3c(O)cc(O[C@@H]4O[C@H](CO[C@@H]5O[C@@H](C)[C@H](O)[C@@H](O)[C@H]5O)[C@@H](O)[C@H](O)[C@H]4O)cc3o2)cc1O` [DIOSMIN], the AC50 (in test [1]; at Estrogen receptor; in test [2]; in [3]; in test [4]; in test [5]) was more than 30 µM in each case. The AC50 (in [6]; on Thromboxane A2 receptor; in test [7]) was more than 30 µM in each case.

`CCOc1ccc(/C=C2\NCCc3cc(OCC)c(OCC)cc32)cc1OCC` [DROTAVERINE]: the AC50 in [1] is 28.4 µM; at Estrogen receptor it was more than 30 µM; in test [2] it was more than 30 µM; in test [3], 9.33 µM; in [4] it was more than 30 µM; in test [5], 5.83 µM. Besides, the AC50 in [6] was more than 10 µM; at Thromboxane A2 receptor, more than 30 µM; in test [7], 1.68 µM.

As to `Cn1cc[nH]c1=S` [METHIMAZOLE], the AC50 was more than 30 µM in test [1]; more than 30 µM at Estrogen receptor; more than 30 µM in [2]; 0.541 µM in [3]; more than 30 µM in test [4]; more than 30 µM in [5]. The AC50 (in test [6]; at Thromboxane A2 receptor; in [7]) was more than 30 µM throughout.

With `CCOC(=O)CC(SP(=S)(OC)OC)C(=O)OCC` (stereo not given) [MALATHION], the AC50 (in test [1]; on Estrogen receptor; in [2]; in test [3]; in test [4]; in [5]) was more than 30 µM throughout. Moreover, the AC50 (in test [6]; at Thromboxane A2 receptor; in test [7]) was more than 30 µM each time.

As for `CCO[C@@H](Cc1ccc(OCCn2c(C)ccc2-c2ccc(SC)cc2)cc1)C(=O)O` [SAROGLITAZAR], the AC50 in test [1] was more than 30 µM; on Estrogen receptor it was more than 30 µM; in test [2] it was 24.5 µM; in test [3], 9.49 µM; in test [4], more than 30 µM; in test [5], more than 30 µM. Also, the AC50 is more than 30 µM in test [6] and 11.1 µM in test [7].

On to `CN(Cc1cc(Br)cc(Br)c1N)C1CCCCC1` [BROMHEXINE], for which the AC50 in test [1] was more than 30 µM; on Estrogen receptor, more than 30 µM; in test [2] it was 22 µM; in [3] it was more than 30 µM; in [4], more than 30 µM; in [5] it was more than 30 µM. In addition, the values for the AC50 (in [6]; at Thromboxane A2 receptor; in test [7]) were more than 30 µM, more than 30 µM and 26.3 µM, respectively.

For the compound `COCC1=C(C(=O)OC(C)OC(=O)OC(C)C)N2C(=O)[C@@H](NC(=O)/C(=N\OC)c3csc(N)n3)[C@H]2SC1` (stereo not given in full) [CEFPODOXIME PROXETIL], the AC50 is more than 30 µM in [1]; more than 30 µM at Estrogen receptor; more than 30 µM in test [2]; 18.1 µM in test [3]; more than 30 µM in test [4]; more than 30 µM in test [5]. The AC50 (in test [6]; on Thromboxane A2 receptor; in [7]) was more than 30 µM each time.

Consider `Nc1nc(-n2cc(C(=O)O)c(=O)c3cc(F)c(N4CC(O)C4)c(Cl)c32)c(F)cc1F` [DELAFLOXACIN], for which the AC50 (in test [1]; on Estrogen receptor; in test [2]; in test [3]; in test [4]; in [5]) was more than 30 µM in each case. Besides, the AC50 (in test [6]; at Thromboxane A2 receptor; in [7]) was more than 30 µM in each case.

Consider `CCCC[N+]1(C)[C@@H]2C[C@@H](OC(=O)[C@H](CO)c3ccccc3)C[C@H]1[C@@H]1O[C@@H]12` (stereo not given in full) [BUTYLSCOPOLAMINE], for which the AC50 (at Estrogen receptor; in test [2]; in test [3]; in test [4]; in [5]; in test [6]) was more than 30 µM throughout. Also, the AC50 (on Thromboxane A2 receptor; in test [7]) was more than 30 µM each time.

In the case of `O=C1NCC2(CCN(CCc3ccccc3)CC2)O1` [FENSPIRIDE], the AC50 in [1] was 16.4 µM; on Estrogen receptor, more than 30 µM; in [2], more than 30 µM; in [3], more than 30 µM; in test [4], more than 30 µM; in test [5] it was 8.2 µM. Moreover, the AC50 (in [6]; at Thromboxane A2 receptor; in [7]) was more than 30 µM in each case.

With `CCN(CC)CCNc1ccc(C)c2sc3ccccc3c(=O)c12` [LUCANTHONE], the AC50 in test [1] was 2.36 µM; on Estrogen receptor it was more than 30 µM; in test [2] it was 2.68 µM; in test [3], more than 30 µM; in test [4] it was more than 30 µM; in test [5] it was 5.65 µM. The AC50 is more than 30 µM in test [6], 13.4 µM on Thromboxane A2 receptor and more than 30 µM in test [7].

With `CC(=O)OC(C)C[N+](C)(C)C` (stereo not given) [METHACHOLINE], the half-maximal activity concentration (AC50) is 2.22 µM in [1]; more than 30 µM at Estrogen receptor; more than 30 µM in test [2]; more than 30 µM in test [3]; more than 30 µM in test [4]; more than 30 µM in test [5]. Also, the AC50 in test [6] and in [7] was more than 30 µM throughout.

Consider `CC(C)Cc1ccc(C(C)C(=O)NO)cc1` (stereo not given) [IBUPROXAM], for which the AC50 (in test [1]; at Estrogen receptor; in test [2]; in test [3]; in test [4]; in test [5]) was more than 30 µM throughout. In addition, the AC50 on Thromboxane A2 receptor was more than 30 µM; in test [7], 24.2 µM.
